Results taken from ChEMBL document CHEMBL1142200, “Efficacy of delayed treatment with ST-246 given orally against systemic orthopoxvirus infections in mice” (Antimicrob Agents Chemother, 2007).
Activity calls are given as the source filed them. The calls are words filed in the database; no cut-off is given here.

Key:
Mus musculus [1] = experiment: Effect on mortality of BALB/c mouse inoculated with Cowpox virus BR at 15 mg/kg after 24 hrs of viral infection, ip for 5 days relative to control; format: functional; details: route intraperitoneal
Mus musculus [2] = experiment: Effect on mortality of BALB/c mouse inoculated with Vaccinia virus WR at 15 mg/kg after 24 hrs of viral infection, ip for 5 days relative to control; format: functional; details: route intraperitoneal
Mus musculus [3] = experiment: Effect on mortality of BALB/c mouse inoculated with Cowpox virus at 15 mg/kg after 4 hrs of viral infection, ip once daily for 5 days relative to control; format: functional; details: route intraperitoneal
Vaccinia virus [4] = experiment: Reduction of Vaccinia virus WR replication in BALB/c mouse liver at 15 mg/kg after 24 hrs of viral infection, ip for 5 days; format: functional, organism-based; parameters: dose 15 mg/kg; details: Orthopoxvirus vaccinia
Vaccinia virus [5] = experiment: Reduction of Vaccinia virus WR replication in BALB/c mouse spleen at 15 mg/kg after 24 hrs of viral infection, ip for 5 days; format: functional, organism-based; parameters: dose 15 mg/kg; details: Orthopoxvirus vaccinia
Vaccinia virus [6] = experiment: Reduction of Vaccinia virus WR replication in BALB/c mouse kidney at 15 mg/kg after 24 hrs of viral infection, ip for 5 days; format: functional, organism-based; parameters: dose 15 mg/kg; details: Orthopoxvirus vaccinia
Mus musculus [7] = experiment: Effect on mortality of BALB/c mouse inoculated with Cowpox virus BR at 50 mg/kg after 24 hrs of viral infection, po for 9 days; format: functional, organism-based; parameters: dose 50 mg/kg
[8] = Cytotoxicity against HFF cells; format: cell-based; details: human
[9] = Selectivity index, ratio of CC50 for HFF cells to EC50 for Vaccinia virus Copenhagen infected HFF cells; format: functional
[10] = Selectivity index, ratio of CC50 for HFF cells to EC50 for Vaccinia virus WR infected HFF cells; format: functional
[11] = Selectivity index, ratio of CC50 for HFF cells to EC50 for Cowpox virus Brighton infected HFF cells; format: functional
Mus musculus [12] = experiment: Effect on mortality of BALB/c mouse inoculated with Cowpox virus at 15 mg/kg after 48 hrs of viral infection, ip once daily for 5 days relative to control; format: functional; details: route intraperitoneal
Mus musculus [13] = experiment: Effect on mortality of BALB/c mouse inoculated with Cowpox virus at 15 mg/kg after 24 hrs of viral infection, ip once daily for 5 days relative to control; format: functional; details: route intraperitoneal
Mus musculus [14] = experiment: Effect on mortality of BALB/c mouse inoculated with Cowpox virus at 15 mg/kg after 72 hrs of viral infection, ip once daily for 5 days relative to control; format: functional; details: route intraperitoneal
Mus musculus [15] = experiment: Effect on mortality of A/NCr mouse inoculated with ectromelia virus at 100 mg/kg after 72 hrs of viral infection, ip once daily for 10 days relative control; format: functional; details: route intraperitoneal
Mus musculus [16] = experiment: Effect on mortality of A/NCr mouse inoculated with 4.1 PFU ectromelia virus at 100 mg/kg after 4 hrs of viral infection, ip once daily for 14 days; format: functional; details: route intraperitoneal
Mus musculus [17] = experiment: Effect on mortality of A/NCr mouse inoculated with ectromelia virus at 100 mg/kg after 0 hrs of viral infection, ip once daily for 10 days relative control; format: functional; details: route intraperitoneal
Mus musculus [18] = experiment: Effect on mortality of A/NCr mouse inoculated with ectromelia virus at 100 mg/kg after 24 hrs of viral infection, ip once daily for 10 days relative control; format: functional; details: route intraperitoneal
Mus musculus [19] = experiment: Effect on mortality of A/NCr mouse inoculated with ectromelia virus at 100 mg/kg after 48 hrs of viral infection, ip once daily for 10 days relative control; format: functional; details: route intraperitoneal
Mus musculus [20] = experiment: Effect on mortality of A/NCr mouse inoculated with 41 PFU ectromelia virus at 100 mg/kg after 4 hrs of viral infection, ip once daily for 14 days; format: functional; details: route intraperitoneal
Mus musculus [21] = experiment: Effect on mortality of A/NCr mouse inoculated with 410 PFU ectromelia virus at 100 mg/kg after 4 hrs of viral infection, ip once daily for 14 days; format: functional; details: route intraperitoneal
Mus musculus [22] = experiment: Effect on mortality of A/NCr mouse inoculated with 4100 PFU ectromelia virus at 100 mg/kg after 4 hrs of viral infection, ip once daily for 14 days; format: functional; details: route intraperitoneal
Cowpox virus [23] = experiment: Reduction of Cowpox virus BR replication in BALB/c mouse liver at 15 mg/kg after 24 hrs of viral infection, ip for 5 days; format: functional, organism-based; parameters: dose 15 mg/kg
Cowpox virus [24] = experiment: Reduction of Cowpox virus BR replication in BALB/c mouse spleen at 15 mg/kg after 24 hrs of viral infection, ip for 5 days; format: functional, organism-based; parameters: dose 15 mg/kg
Cowpox virus [25] = experiment: Reduction of Cowpox virus BR replication in BALB/c mouse kidney at 15 mg/kg after 24 hrs of viral infection, ip for 5 days; format: functional, organism-based; parameters: dose 15 mg/kg

Structure (SMILES): Nc1ccn(C[C@@H](CO)OCP(=O)(O)O)c(=O)n1.O.O [CIDOFOVIR]
- Activity (Mus musculus [1]): 0%
- Activity (Mus musculus [2]): 7%
- Activity (Mus musculus [3]): 0%
- Activity (Vaccinia virus [4]): Active
- Activity (Vaccinia virus [5]): Active
- Activity (Vaccinia virus [6]): Active
- Activity (Mus musculus [7]): Active
- CC50 [8]: > 317 µM
- Ratio CC50/EC50 [9]: >10.9
- Ratio CC50/EC50 [10]: >9.6
- Ratio CC50/EC50 [11]: >7.7
- Activity (Mus musculus [12]): 0%
- Activity (Mus musculus [13]): 0%
- Activity (Mus musculus [14]): 0%
- Activity (Mus musculus [15]): 0%
- Activity (Mus musculus [16]): 0%
- Activity (Mus musculus [17]): 0%
- Activity (Mus musculus [18]): 0%
- Activity (Mus musculus [19]): 0%
- Activity (Mus musculus [20]): 40%
- Activity (Mus musculus [21]): 0%
- Activity (Mus musculus [22]): 0%
- Activity (Cowpox virus [23]): Active
- Activity (Cowpox virus [24]): Active
- Activity (Cowpox virus [25]): Active
